These results are taken from patent US11608335B2, “Somatostatin modulators and uses thereof” (CRINETICS PHARMACEUTICALS, INC., priority 2018, dated 2023).

The structures appear in SMILES notation.

For one assay, the target named is human somatostatin receptor subtype 5 (Homo sapiens, UniProt P35346). Nature of the assay: cAMP assay for SST5R (inhibition of cAMP via human SST5 receptor).
Chain of human somatostatin receptor subtype 5 (P35346 whole entry): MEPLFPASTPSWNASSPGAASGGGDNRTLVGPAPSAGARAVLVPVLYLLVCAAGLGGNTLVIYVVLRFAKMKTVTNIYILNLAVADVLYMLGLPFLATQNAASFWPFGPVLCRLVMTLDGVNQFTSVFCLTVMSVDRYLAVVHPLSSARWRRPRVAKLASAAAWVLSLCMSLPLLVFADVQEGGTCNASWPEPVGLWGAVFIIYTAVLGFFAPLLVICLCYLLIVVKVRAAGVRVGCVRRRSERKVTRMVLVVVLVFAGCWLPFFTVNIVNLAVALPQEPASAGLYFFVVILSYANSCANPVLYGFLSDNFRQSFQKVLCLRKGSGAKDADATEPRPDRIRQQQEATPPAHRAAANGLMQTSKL
Conditions: not given
As to `CON=Cc1cc(F)cc(-c2cncc(-c3nc4c(F)cccc4[nH]3)c2N2CC[C@H](N)C2)c1` [Compound 2-9, (3S)-1-[3-(4-fluoro-1H-1,3-benzodiazol-2-yl)-5-{3-fluoro-5-[(methoxyimino)methyl]phenyl}pyridin-4-yl]pyrrolidin-3-amine], the concentration for a half-maximal effect (EC50) was 10 to 100 nM.

For `Cc1cc(-c2cncc(-c3nc4cc(F)cc(F)c4[nH]3)c2N2CC(CN)C2)cc(C(F)(F)F)c1` [Compound 1-33, 1-{1-[3-(4,6-difluoro-1H-1,3-benzodiazol-2-yl)-5-[3-methyl-5-(trifluoromethyl)phenyl]pyridin-4-yl]azetidin-3-yl}methanamine], the 50% effective concentration (EC50) was in the range of 100 to 1000 nM.

As to `Cc1ccc(F)c2[nH]c(-c3cncc(-c4ccnc(C(N)=O)c4)c3N3CC[C@H](N)C3)nc12` [Compound 2-107, 4-[(3S)-3-aminopyrrolidin-1-yl]-5-(7-fluoro-4-methyl-1H-1,3-benzodiazol-2-yl)-[3,4′-bipyridine]-2′-carboxamide], the EC50 was greater than 1000 nM.

Compound `NCC1CN(c2c(-c3ccc4cc[nH]c4c3)cncc2-c2nc3cc(F)cc(F)c3[nH]2)C1` [Compound 1-35, 1-{1-[3-(4,6-difluoro-1H-1,3-benzodiazol-2-yl)-5-(1H-indol-6-yl)pyridin-4-yl]azetidin-3-yl}methanamine] registered an EC50 greater than 1000 nM.

Compound `N[C@H]1CCN(c2c(-c3cc(O)cc(F)c3)cncc2-c2nc3cccc(F)c3[nH]2)C1` [Compound 2-25, 3-{4-[(3S)-3-aminopyrrolidin-1-yl]-5-(4-fluoro-1H-1,3-benzodiazol-2-yl)pyridin-3-yl}-5-fluorophenol] showed an EC50 of 10 to 100 nM.

As for `Cc1c(Cl)cccc1-c1cncc(-c2nc3cc(F)cc(F)c3[nH]2)c1N1CC(CN)C1` [Compound 1-66, 1-{1-[3-(3-chloro-2-methylphenyl)-5-(4,6-difluoro-1H-1,3-benzodiazol-2-yl)pyridin-4-yl]azetidin-3-yl}methanamine], the EC50 fell in the range of 10 to 100 nM.

Consider `C[C@]1(N)CCN(c2c(-c3ccc(F)c(C#N)c3)cncc2-c2nc3c(C#N)ccnc3[nH]2)C1` [Compound 2-176, 2-{4-[(3S)-3-amino-3-methylpyrrolidin-1-yl]-5-(3-cyano-4-fluorophenyl)pyridin-3-yl}-1H-imidazo[4,5-b]pyridine-7-carbonitrile], for which the EC50 was less than 10 nM.

`Cc1ccccc1-c1cncc(-c2nc3cc(F)cc(F)c3[nH]2)c1N1CC(CN)C1` [Compound 1-30, 1-{1-[3-(4,6-difluoro-1H-1,3-benzodiazol-2-yl)-5-(2-methylphenyl)pyridin-4-yl]azetidin-3-yl}methanamine]: the concentration giving a half-maximal response (EC50) was in the range of 10 to 100 nM.

Take `Cc1cccc2c1nc(-c1cncc(-c3cc(F)cc(C#N)c3)c1N1CC[C@H](N)C1)n2C` [Compound 2-114, 3-{4-[(3S)-3-aminopyrrolidin-1-yl]-5-(1,4-dimethyl-1H-1,3-benzodiazol-2-yl)pyridin-3-yl}-5-fluorobenzonitrile]: the concentration for a half-maximal effect (EC50) is less than 10 nM.

Turning to `Cc1cc(F)cc(-c2cncc(-c3nc4cc(F)c(Cl)cc4[nH]3)c2N2CC(CN)C2)c1` [Compound 1-14, 1-{1-[3-(5-chloro-6-fluoro-1H-1,3-benzodiazol-2-yl)-5-(3-fluoro-5-methylphenyl)pyridin-4-yl]azetidin-3-yl}methanamine], the EC50 lay within 10 to 100 nM.

In the case of `N#CCn1c(-c2cncc(-c3cc(F)cc(C#N)c3)c2N2CC[C@H](N)C2)nc2ccccc21` [Compound 2-113, 3-{4-[(3S)-3-aminopyrrolidin-1-yl]-5-[1-(cyanomethyl)-1H-1,3-benzodiazol-2-yl]pyridin-3-yl}-5-fluorobenzonitrile], the EC50 was 100 to 1000 nM.

As for `N#Cc1cccc(-c2cncc(-c3nc4c(C(=O)O)cccc4[nH]3)c2N2CC[C@H](N)C2)c1` [Compound 2-82, 2-{4-[(3S)-3-aminopyrrolidin-1-yl]-5-(3-cyanophenyl)pyridin-3-yl}-1H-1,3-benzodiazole-4-carboxylic acid], the concentration giving a half-maximal response (EC50) was greater than 1000 nM.

`NCC1CN(c2c(-c3cc(Cl)cc(C(F)(F)F)c3)cncc2-c2nc3cc(F)cc(F)c3[nH]2)C1` [Compound 1-40, 1-(1-{3-[3-chloro-5-(trifluoromethyl)phenyl]-5-(4,6-difluoro-1H-1,3-benzodiazol-2-yl)pyridin-4-yl}azetidin-3-yl)methanamine] returned an EC50 of 10 to 100 nM.

For `N[C@H]1CCN(c2c(-c3cc(F)cc(Cl)c3)cncc2-c2nc3ccc(Cl)cc3[nH]2)C1` [Compound 2-95, (3S)-1-[3-(5-chloro-1H-1,3-benzodiazol-2-yl)-5-(3-chloro-5-fluorophenyl)pyridin-4-yl]pyrrolidin-3-amine], the half-maximal effective concentration (EC50) was in the range of 10 to 100 nM.

Consider `N#Cc1cccc(-c2cncc(-c3nc4c(F)c(F)c(F)c(F)c4[nH]3)c2N2CC[C@H](N)C2)c1` [Compound 2-41, 3-{4-[(3S)-3-aminopyrrolidin-1-yl]-5-(4,5,6,7-tetrafluoro-1H-1,3-benzodiazol-2-yl)pyridin-3-yl}benzonitrile], for which the EC50 was 10 to 100 nM.

The compound `N#Cc1cc(F)cc(-c2cncc(-c3nc4cccc(F)c4[nH]3)c2N2C[C@@H](N)C[C@@H]2CO)c1` [Compound 2-66, 3-{4-[(2R,4S)-4-amino-2-(hydroxymethyl)pyrrolidin-1-yl]-5-(4-fluoro-1H-1,3-benzodiazol-2-yl)pyridin-3-yl}-5-fluorobenzonitrile] gave a 50% effective concentration (EC50) of 100 to 1000 nM.

`CC(N)C1CN(c2c(-c3nc4cc(F)cc(F)c4[nH]3)cncc2-c2cccc(F)c2Cl)C1` (stereo not shown) [Compound 1-74, 1-{1-[3-(2-chloro-3-fluorophenyl)-5-(4,6-difluoro-1H-1,3-benzodiazol-2-yl)pyridin-4-yl]azetidin-3-yl}ethan-1-amine] registered a concentration giving a half-maximal response (EC50) of less than 10 nM.

Regarding `COc1ccc(-c2cncc(-c3nc4c(C#N)ccnc4[nH]3)c2N2CC[C@](C)(N)C2)cc1C#N` [Compound 2-179, 2-{4-[(3S)-3-mino-3-methylpyrrolidin-1-yl]-5-(3-cyano-4-methoxyphenyl)pyridin-3-yl}-1H-imidazo[4,5-b]pyridine-7-carbonitrile], the EC50 is 10 to 100 nM.

Compound `CC1(N)CCN(c2c(-c3ccc4[nH]ccc4c3)cncc2-c2nc3cccc(F)c3[nH]2)C1` (stereo not shown) [Compound 2-30, 1-[3-(4-fluoro-1H-1,3-benzodiazol-2-yl)-5-(1H-indol-5-yl)pyridin-4-yl]-3-methylpyrrolidin-3-amine] displayed a concentration for a half-maximal effect (EC50) of 100 to 1000 nM.

As to `CC1(N)CCN(c2c(-c3ccnc(C#N)c3)cncc2-c2nc3cccc(C#N)c3[nH]2)C1` (stereo not shown) [Compound 2-160, 4-(3-amino-3-methylpyrrolidin-1-yl)-5-(4-cyano-1H-1,3-benzodiazol-2-yl)-[3,4′-bipyridine]-2′-carbonitrile], the concentration giving a half-maximal response (EC50) is less than 10 nM.

For the compound `Cc1nccc2nc(-c3cncc(-c4ccc(F)c(C#N)c4)c3N3CCC(C)(N)C3)[nH]c12` (stereo not shown) [Compound 2-159, 5-[4-(3-amino-3-methylpyrrolidin-1-yl)-5-{4-methyl-3H-imidazo[4,5-c]pyridin-2-yl}pyridin-3-yl]-2-fluorobenzonitrile], the EC50 is less than 10 nM.

Consider `Cc1ccc2nc(-c3cncc(-c4cc(F)cc(Cl)c4)c3N3CC[C@H](N)C3)[nH]c2c1` [Compound 2-102, (3S)-1-[3-(3-chloro-5-fluorophenyl)-5-(5-methyl-1H-1,3-benzodiazol-2-yl)pyridin-4-yl]pyrrolidin-3-amine], for which the half-maximal effective concentration (EC50) was less than 10 nM.

For the compound `N#Cc1cccc(-c2cncc(-c3nc4c(F)cc(F)cc4[nH]3)c2N2CC(CN)C2)c1` [Compound 1-54, 3-{4-[3-(aminomethyl)azetidin-1-yl]-5-(4,6-difluoro-1H-1,3-benzodiazol-2-yl)pyridin-3-yl}benzonitrile], the EC50 is less than 10 nM.

`Cc1cc(-c2cncc(-c3nc4cc(F)cc(F)c4[nH]3)c2N2CC(CN)C2)ccc1F` [Compound 1-47, 1-{1-[3-(4,6-difluoro-1H-1,3-benzodiazol-2-yl)-5-(4-fluoro-3-methylphenyl)pyridin-4-yl]azetidin-3-yl}methanamine] registered an EC50 of less than 10 nM.

As to `Cc1cccc2nc(-c3cncc(-c4cc(F)c(F)c(C(=O)O)c4)c3N3CCC(C)(N)C3)[nH]c12` (stereo not shown) [Compound 2-126, 5-[4-(3-amino-3-methylpyrrolidin-1-yl)-5-(4-methyl-1H-1,3-benzodiazol-2-yl)pyridin-3-yl]-2,3-difluorobenzoic acid], the concentration for a half-maximal effect (EC50) is greater than 1000 nM.

Turning to `Cc1cc(F)cc(-c2cncc(-c3nc4cc(F)c(F)cc4[nH]3)c2N2CC(CN)C2)c1` [Compound 1-13, 1-{1-[3-(5,6-difluoro-1H-1,3-benzodiazol-2-yl)-5-(3-fluoro-5-methylphenyl)pyridin-4-yl]azetidin-3-yl}methanamine], the EC50 fell in the range of 10 to 100 nM.

Compound `NCC1CN(c2c(-c3nc4c(F)cc(F)cc4[nH]3)cncc2-c2ccccc2F)C1` [Compound 1-44, 1-{1-[3-(4,6-difluoro-1H-1,3-benzodiazol-2-yl)-5-(2-fluorophenyl)pyridin-4-yl]azetidin-3-yl}methanamine] returned a concentration for a half-maximal effect (EC50) of 100 to 1000 nM.

For `Cc1cccc2nc(-c3cncc(-c4cc(F)cc(C#N)c4)c3N3CC[C@](N)(CO)C3)[nH]c12` [Compound 2-136, 3-{4-[(3R)-3-amino-3-(hydroxymethyl)pyrrolidin-1-yl]-5-(4-methyl-1H-1,3-benzodiazol-2-yl)pyridin-3-yl}-5-fluorobenzonitrile], the EC50 was 10 to 100 nM.

For the compound `NCC1CN(c2c(-c3nc4cc(F)cc(F)c4[nH]3)cncc2-c2cccc3ccccc23)C1` [Compound 1-52, 1-{1-[3-(4,6-difluoro-1H-1,3-benzodiazol-2-yl)-5-(naphthalen-1-yl)pyridin-4-yl]azetidin-3-yl}methanamine], the EC50 lay in the range of 10 to 100 nM.

`Cc1cc(F)cc(-c2cncc(-c3nc4cc(F)cc(F)c4[nH]3)c2N2CC(C(N)CO)C2)c1` (stereo not shown) [Compound 1-49, 2-Amino-2-{1-[3-(4,6-difluoro-1H-1,3-benzodiazol-2-yl)-5-(3-fluoro-5-methylphenyl)pyridin-4-yl]azetidin-3-yl}ethan-1-ol] came in with a concentration for a half-maximal effect (EC50) of less than 10 nM.

The same assay, now with this note: SST5 over SST2, class symbols.
For `COc1cccc(-c2cncc(-c3nc4cccc(F)c4[nH]3)c2N2CCC(C)(N)C2)c1` (stereo not shown) [Compound 2-11, 1-[3-(4-fluoro-1H-1,3-benzodiazol-2-yl)-5-(3-methoxyphenyl)pyridin-4-yl]-3-methylpyrrolidin-3-amine], the “Fold selectivity for SST5 vs SST2” value was “+++ (+++=≥500)”.

The term EC50 denotes the midpoint of the concentration-response curve. A low value points to higher potency in that assay.
